Results from patent publication US20110144578A1, “HYDROPHOBIC THERAPUEUTIC AGENT AND SOLID EMULSIFIER COATING FOR DRUG COATED BALLOON” (priority 2009, published 2011).
Values after ≈ are worked out from the molar mass of the structure shown.

Legend:
physchem = conditions: water
Excerpt: Using the Stokes-Einstein equation as a simple model, diffusion coefficients are approximately proportional to the molecular weight of a species raised to the −⅓ power. Thus, individual molecules or micelles, which are low in molecular weight, tend to diffuse much faster than microspheres or nanoparticles, which are much higher in molecular weight.

[1] = Solubility enhancement screening in 5% (w/w) excipient solutions in phosphate buffered saline, HPLC of supernatant; format: physicochemical; conditions: aqueous buffer, thermodynamic from solid, 37° C., n = 3, read-out: Zotarolimus Solubility
Protocol: Emulsifier candidates can be screened by measuring the degree to which they can enhance the solubility of the therapeutic agent. One way to accomplish this is to make 5% (w/w) solutions of the emulsifiers of interest in a phosphate buffered saline solution. An excess amount of drug is added to the solution and incubated with stirring at 37° C. After centrifugation to precipitate all solids, the supernatant is assayed by HPLC for the drug concentration.

CO[C@H]1C[C@@H]2CC[C@@H](C)[C@@](O)(O2)C(=O)C(=O)N2CCCC[C@H]2C(=O)O[C@H]([C@H](C)C[C@@H]2CC[C@H](n3cnnn3)[C@H](OC)C2)CC(=O)[C@H](C)/C=C(\C)[C@@H](O)[C@@H](OC)C(=O)[C@H](C)C[C@H](C)/C=C/C=C/C=C/1C [Zotarolimus, zotarolimus]
solubility (physchem): 0.5 µg/mL (≈ 0.517 µM) | solubility [1]: 0.53 µg/mL
